Laboratory results from patent publication US8148367B2 (Takeda Pharmaceutical Company Limited, priority 2008, dated 2012).

The compounds below were run against T1, Recombinant human renin (Homo sapiens, UniProt P00797) (assay: In vitro enzymatic activity assay of renin inhibitors (fluorescence, QXL520/HiLyteFluo488 peptide substrate)). Conditions: recombinant human renin 3 nM, 1 μM substrate, pre-incubated 10 minutes at 37° C., incubation one hour, pH 7.4, 5% DMSO; read-out: IC50 of Exemplified Compounds Against Renin.
T1 construct: isolate the active form (residues 67-406); made in house; host or cells: FreeStyle 293-F cells, transient expression of pcDNA3.1(+)/hREN
T1 sequence (P00797 67-406): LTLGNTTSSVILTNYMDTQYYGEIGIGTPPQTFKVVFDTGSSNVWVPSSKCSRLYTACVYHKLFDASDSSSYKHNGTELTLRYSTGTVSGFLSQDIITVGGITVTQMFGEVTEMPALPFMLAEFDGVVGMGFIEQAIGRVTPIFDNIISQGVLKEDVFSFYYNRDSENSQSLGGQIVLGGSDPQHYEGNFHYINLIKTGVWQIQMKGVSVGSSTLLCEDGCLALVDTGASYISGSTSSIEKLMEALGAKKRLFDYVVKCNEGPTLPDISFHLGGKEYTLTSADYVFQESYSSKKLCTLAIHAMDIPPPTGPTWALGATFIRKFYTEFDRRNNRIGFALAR
Type: biochemical

`CCOC(=O)N1CCc2ccc(-n3c(-c4ccccc4)c(C(=O)N4CCNC[C@H]4Cc4ccccc4)[nH]c3=O)cc21` [Example 139, (R)-Ethyl 6-(4-(2-benzylpiperazine-1-carbonyl)-2-oxo-5-phenyl-2,3-dihydro-1H-imidazol-1-yl)indoline-1-carboxylate] was tested. Which IC50 did it give?
The IC50 was < 100 nM.

With `O=C(c1[nH]c(=O)n(-c2ccc3c(c2)NCCC3)c1-c1ccccc1)N1CCNC[C@H]1CCOc1ccccc1` [Example 140, (R)-4-(2-(2-Phenoxyethyl)piperazine-1-carbonyl)-5-phenyl-1-(1,2,3,4-tetrahydroquinolin-7-yl)-1H-imidazol-2(3H)-one] as the compound, how does the IC50 read?
Its IC50 is < 100 nM.

With `C=CCn1c(C(=O)N2CCNCC2)c(-c2ccccc2)n(-c2ccccc2C)c1=O` [Example 141, 1-Allyl-4-phenyl-5-(piperazine-1-carbonyl)-3-o-tolyl-1H-imidazol-2(3H)-one] as the compound, how does the IC50 read?
Its IC50 is > 1000 nM.

For `Cc1ccccc1-n1c(-c2ccccc2)c(C(=O)N2CCNCC2)n(Cc2cccc(Oc3ccccc3)c2)c1=O` [Example 142, 1-(3-Phenoxybenzyl)-4-phenyl-5-(piperazine-1-carbonyl)-3-o-tolyl-1H-imidazol-2(3H)-one], which IC50 is on record?
The IC50 was 100 to 500 nM.

`COc1cccc(Cn2c(C(=O)N3CCNCC3)c(-c3ccccc3)n(-c3ccccc3C)c2=O)c1` [Example 143, 1-(3-Methoxybenzyl)-4-phenyl-5-(piperazine-1-carbonyl)-3-o-tolyl-1H-imidazol-2(3H)-one] was tested. Which IC50 did it give?
The IC50 was 100 to 500 nM.

With `Cc1ccccc1-n1c(-c2ccccc2)c(C(=O)N2CCNCC2)n(Cc2ccc(F)c(F)c2)c1=O` [Example 144, 1-(3,4-Difluorobenzyl)-4-phenyl-5-(piperazine-1-carbonyl)-3-o-tolyl-1H-imidazol-2(3H)-one] as the compound, how does the IC50 read?
Its IC50 is 500 to 1000 nM.

`C=CCn1c(C(=O)N2CCNCC2)c(-c2ccccc2)n(-c2ccccc2OC)c1=O` [Example 145, 1-Allyl-3-(2-methoxyphenyl)-4-phenyl-5-(piperazine-1-carbonyl)-1H-imidazol-2(3H)-one] was tested. Which IC50 did it give?
The IC50 was > 1000 nM.

`COc1ccccc1-n1c(-c2ccccc2)c(C(=O)N2CCNCC2)n(Cc2cccc(Oc3ccccc3)c2)c1=O` [Example 146, 1-(2-Methoxyphenyl)-3-(3-phenoxybenzyl)-5-phenyl-4-(piperazine-1-carbonyl)-1H-imidazol-2(3H)-one] was tested. Which IC50 did it give?
Its IC50 is 100 to 500 nM.

With `COc1cccc(Cn2c(C(=O)N3CCNCC3)c(-c3ccccc3)n(-c3ccccc3OC)c2=O)c1` [Example 147, 1-(3-Methoxybenzyl)-3-(2-methoxyphenyl)-4-phenyl-5-(piperazine-1-carbonyl)-1H-imidazol-2(3H)-one] as the compound, how does the IC50 read?
The IC50 was > 1000 nM.

With `COc1ccccc1-n1c(-c2ccccc2)c(C(=O)N2CCNCC2)n(Cc2ccc(F)c(F)c2)c1=O` [Example 148, 1-(3,4-Difluorobenzyl)-3-(2-methoxyphenyl)-4-phenyl-5-(piperazine-1-carbonyl)-1H-imidazol-2(3H)-one] as the compound, how does the IC50 read?
The IC50 was > 1000 nM.

With `Cc1ccccc1-n1c(-c2ccccc2)c(C(=O)N2CCNCC2)n(Cc2cccc(OCCOc3ccccc3)c2)c1=O` [Example 149, 1-(3-(2-Phenoxyethoxy)benzyl)-4-phenyl-5-(piperazine-1-carbonyl)-3-o-tolyl-1H-imidazol-2(3H)-one] as the compound, how does the IC50 read?
Its IC50 is 100 to 500 nM.

How did the IC50 turn out when `C=CCn1c(C(=O)N2CCNCC2)c(-c2ccccc2)n(-c2cccc(N3CCOCC3)c2)c1=O` [Example 150, 1-Allyl-3-(3-morpholinophenyl)-4-phenyl-5-(piperazine-1-carbonyl)-1H-imidazol-2(3H)-one] was run?
Its IC50 is > 1000 nM.

For `COc1cccc(Cn2c(C(=O)N3CCNCC3)c(-c3ccccc3)n(-c3cccc(N4CCOCC4)c3)c2=O)c1` [Example 151, 1-(3-Methoxybenzyl)-3-(3-morpholinophenyl)-4-phenyl-5-(piperazine-1-carbonyl)-1H-imidazol-2(3H)-one], which IC50 is on record?
Its IC50 is 100 to 500 nM.

With `O=C(c1c(-c2ccccc2)n([C@H]2CCCC[C@H]2O)c(=O)n1Cc1cccc(Oc2ccccc2)c1)N1CCNCC1` [Example 152, 1-((1S,2R)-2-Hydroxycyclohexyl)-3-(3-phenoxybenzyl)-5-phenyl-4-(piperazine-1-carbonyl)-1H-imidazol-2(3H)-one] as the compound, how does the IC50 read?
Its IC50 is 500 to 1000 nM.

For `COc1cccc(Cn2c(C(=O)N3CCNCC3)c(-c3ccccc3)n([C@H]3CCCC[C@H]3O)c2=O)c1` [Example 153, 1-((1S,2R)-2-Hydroxycyclohexyl)-3-(3-methoxybenzyl)-5-phenyl-4-(piperazine-1-carbonyl)-1H-imidazol-2(3H)-one], which IC50 is on record?
Its IC50 is > 1000 nM.

With `O=C(c1c(-c2ccccc2)n([C@H]2CCCC[C@H]2O)c(=O)n1Cc1ccc(F)c(F)c1)N1CCNCC1` [Example 154, 1-(3,4-Difluorobenzyl)-3-((1S,2R)-2-hydroxycyclohexyl)-4-phenyl-5-(piperazine-1-carbonyl)-1H-imidazol-2(3H)-one] as the compound, how does the IC50 read?
The IC50 was > 1000 nM.

With `Cc1ccccc1-n1c(-c2ccccc2)c(C(=O)N2CCNCC2)n(CCNS(=O)(=O)c2ccccc2)c1=O` [Example 155, N-(2-(2-oxo-4-Phenyl-5-(piperazine-1-carbonyl)-3-o-tolyl-2,3-dihydro-1H-imidazol-1-yl)ethyl)benzenesulfonamide] as the compound, how does the IC50 read?
The IC50 was > 1000 nM.

For `Cc1ccccc1-n1c(-c2ccccc2)c(C(=O)N2CCNCC2)n(CCCNC(=O)c2ccccc2)c1=O` [Example 156, N-(3-(2-oxo-4-Phenyl-5-(piperazine-1-carbonyl)-3-o-tolyl-2,3-dihydro-1H-imidazol-1-yl)propyl)benzamide], which IC50 is on record?
The IC50 was > 1000 nM.

Which IC50 does the source give for `O=C(c1c(-c2ccccc2)n([C@H]2CCCC[C@H]2O)c(=O)n1CC1CCCCC1)N1CCNCC1` [Example 157, 1-(Cyclohexylmethyl)-3-((1S,2R)-2-hydroxycyclohexyl)-4-phenyl-5-(piperazine-1-carbonyl)-1H-imidazol-2(3H)-one] here?
Its IC50 is > 1000 nM.

`COc1ccccc1-n1c(-c2ccccc2)c(C(=O)N2CCNCC2)n(CCNS(=O)(=O)c2ccccc2)c1=O` [Example 158, N-(2-(3-(2-Methoxyphenyl)-2-oxo-4-phenyl-5-(piperazine-1-carbonyl)-2,3-dihydro-1H-imidazol-1-yl)ethyl)benzenesulfonamide] was tested. Which IC50 did it give?
The IC50 was > 1000 nM.

With `COc1ccccc1-n1c(-c2ccccc2)c(C(=O)N2CCNCC2)n(CCCNC(=O)c2ccccc2)c1=O` [Example 159, N-(3-(3-(2-Methoxyphenyl)-2-oxo-4-phenyl-5-(piperazine-1-carbonyl)-2,3-dihydro-1H-imidazol-1-yl)propyl)benzamide] as the compound, how does the IC50 read?
Its IC50 is > 1000 nM.

`COc1ccccc1-n1c(-c2ccccc2)c(C(=O)N2CCNCC2)n(CC2CCCCC2)c1=O` [Example 160, 1-(Cyclohexylmethyl)-3-(2-methoxyphenyl)-4-phenyl-5-(piperazine-1-carbonyl)-1H-imidazol-2(3H)-one] was tested. Which IC50 did it give?
The IC50 was > 1000 nM.

Which IC50 does the source give for `COc1ccccc1-n1c(-c2ccccc2)c(C(=O)N2CCNCC2)n(CCCNS(=O)(=O)c2ccccc2)c1=O` [Example 161, N-(3-(3-(2-Methoxyphenyl)-2-oxo-4-phenyl-5-(piperazine-1-carbonyl)-2,3-dihydro-1H-imidazol-1-yl)propyl)benzenesulfonamide] here?
The IC50 was 100 to 500 nM.

For `Cc1ccccc1-n1c(-c2ccccc2)c(C(=O)N2CCNCC2)n(CCCNS(=O)(=O)c2ccccc2)c1=O` [Example 162, N-(3-(2-oxo-4-Phenyl-5-(piperazine-1-carbonyl)-3-o-tolyl-2,3-dihydro-1H-imidazol-1-yl)propyl)benzenesulfonamide], which IC50 is on record?
The IC50 was 100 to 500 nM.

`Cc1ccccc1-n1c(-c2ccccc2)c(C(=O)N2CCNCC2)n(CC2CCCCC2)c1=O` [Example 163, 1-(Cyclohexylmethyl)-4-phenyl-5-(piperazine-1-carbonyl)-3-o-tolyl-1H-imidazol-2(3H)-one] was tested. Which IC50 did it give?
The IC50 was > 1000 nM.
